Laboratory results taken from ChEMBL document CHEMBL3885881, “DrugMatrix”.

Species on record: Rattus norvegicus
Experiment: DrugMatrix - Regimen: Daily Repeat
Format: toxicity, organism-based, Sprague-Dawley
Design: regimen Daily Repeat, gender Male, age 6-8 weeks
Conditions: in vivo, po, route oral GAVAGE, […]; for ABSOLUTE BASOPHIL / ABSOLUTE EOSINOPHIL / ABSOLUTE LYMPHOCYTE / ABSOLUTE MONOCYTE / ABSOLUTE SEGMENTED NEUTROPHIL / BASOPHIL / EOSINOPHIL / ERYTHROCYTE COUNT / HEMATOCRIT / HEMOGLOBIN / LEUKOCYTE COUNT / LYMPHOCYTE / MEAN CORPUSCULAR HEMOGLOBIN / MEAN CORPUSCULAR HEMOGLOBIN CONCENTRATION / MEAN CORPUSCULAR VOLUME / MONOCYTE / NEUTROPHIL / NUCLEATED RED BLOOD CELLS / PLATELET COUNT: tissue Blood; for ALANINE AMINOTRANSFERASE / ALBUMIN / ALKALINE PHOSPHATASE / ASPARTATE AMINOTRANSFERASE / BLOOD UREA NITROGEN / CARBON DIOXIDE / CHLORIDE / CHOLESTEROL / CREATINE PHOSPHOKINASE / CREATININE / GLUCOSE / LACTATE DEHYDROGENASE / LIPASE / PHOSPHORUS / POTASSIUM / SODIUM / TOTAL BILIRUBIN / TOTAL PROTEIN / URIC ACID: tissue Plasma
[1] = 3 mg/kg, 72 h, dose level Low, time 3 day
[2] = 3 mg/kg, 120 h, dose level Low, time 5 day
[3] = 250 mg/kg, 72 h, dose level High, time 3 day
[4] = 250 mg/kg, 120 h, dose level High, time 5 day

SMILES: N#Cc1ccc(C(c2ccc(C#N)cc2)n2cncn2)cc1 [LETROZOLE]
- ABSOLUTE BASOPHIL [1]: 0 CELLS/uL
- ABSOLUTE EOSINOPHIL [1]: 184 CELLS/uL
- ABSOLUTE LYMPHOCYTE [1]: 10672.33 CELLS/uL
- ABSOLUTE MONOCYTE [1]: 0 CELLS/uL
- ABSOLUTE SEGMENTED NEUTROPHIL [1]: 1877 CELLS/uL
- BASOPHIL [1]: 0%
- EOSINOPHIL [1]: 0.67%
- ERYTHROCYTE COUNT [1]: 4.51 x10E6/uL
- HEMATOCRIT [1]: 28.03%
- HEMOGLOBIN [1]: 11.33 G/DL
- LEUKOCYTE COUNT [1]: 12.73 x10E3/uL
- LYMPHOCYTE [1]: 88.67%
- MEAN CORPUSCULAR HEMOGLOBIN [1]: 25.07 pg
- MEAN CORPUSCULAR HEMOGLOBIN CONCENTRATION [1]: 40.37 G/DL
- MEAN CORPUSCULAR VOLUME [1]: 62.1 fL
- MONOCYTE [1]: 0%
- NEUTROPHIL [1]: 10.67%
- NUCLEATED RED BLOOD CELLS [1]: 0 /100WBC
- PLATELET COUNT [1]: 541.33 x10E3/uL
- ALANINE AMINOTRANSFERASE [1]: 85.67 u/L
- ALBUMIN [1]: 4.07 G/DL
- ALKALINE PHOSPHATASE [1]: 351.67 u/L
- ASPARTATE AMINOTRANSFERASE [1]: 114.67 u/L
- BLOOD UREA NITROGEN [1]: 15 mg/dL
- CARBON DIOXIDE [1]: 26.67 mmol/L
- CHLORIDE [1]: 105 MEQ/L
- CHOLESTEROL [1]: 72.33 mg/dL
- CREATINE PHOSPHOKINASE [1]: 577.67 u/L
- CREATININE [1]: 0.17 mg/dL
- GLUCOSE [1]: 196.67 mg/dL
- LACTATE DEHYDROGENASE [1]: 171.67 u/L
- LIPASE [1]: 8.33 u/L
- PHOSPHORUS [1]: 13.4 mg/dL
- POTASSIUM [1]: 5.91 MEQ/L
- SODIUM [1]: 144 MEQ/L
- TOTAL BILIRUBIN [1]: 0.2 mg/dL
- TOTAL PROTEIN [1]: 5.4 G/DL
- URIC ACID [1]: 1.37 mg/dL
- ABSOLUTE BASOPHIL [2]: 0 CELLS/uL
- ABSOLUTE EOSINOPHIL [2]: 0 CELLS/uL
- ABSOLUTE LYMPHOCYTE [2]: 13516.33 CELLS/uL
- ABSOLUTE MONOCYTE [2]: 50.67 CELLS/uL
- ABSOLUTE SEGMENTED NEUTROPHIL [2]: 1033 CELLS/uL
- BASOPHIL [2]: 0%
- EOSINOPHIL [2]: 0%
- ERYTHROCYTE COUNT [2]: 5.59 x10E6/uL
- HEMATOCRIT [2]: 35.97%
- HEMOGLOBIN [2]: 14.1 G/DL
- LEUKOCYTE COUNT [2]: 14.6 x10E3/uL
- LYMPHOCYTE [2]: 92.67%
- MEAN CORPUSCULAR HEMOGLOBIN [2]: 25.23 pg
- MEAN CORPUSCULAR HEMOGLOBIN CONCENTRATION [2]: 39.17 G/DL
- MEAN CORPUSCULAR VOLUME [2]: 64.33 fL
- MONOCYTE [2]: 0.33%
- NEUTROPHIL [2]: 7%
- NUCLEATED RED BLOOD CELLS [2]: 0 /100WBC
- PLATELET COUNT [2]: 1165 x10E3/uL
- ALANINE AMINOTRANSFERASE [2]: 55 u/L
- ALBUMIN [2]: 4.23 G/DL
- ALKALINE PHOSPHATASE [2]: 407 u/L
- ASPARTATE AMINOTRANSFERASE [2]: 79.33 u/L
- BLOOD UREA NITROGEN [2]: 18 mg/dL
- CARBON DIOXIDE [2]: 27.67 mmol/L
- CHLORIDE [2]: 103 MEQ/L
- CHOLESTEROL [2]: 69.33 mg/dL
- CREATINE PHOSPHOKINASE [2]: 252.67 u/L
- CREATININE [2]: 0.22 mg/dL
- GLUCOSE [2]: 176 mg/dL
- LACTATE DEHYDROGENASE [2]: 155.33 u/L
- LIPASE [2]: 11.33 u/L
- PHOSPHORUS [2]: 11.3 mg/dL
- POTASSIUM [2]: 6.08 MEQ/L
- SODIUM [2]: 143.2 MEQ/L
- TOTAL BILIRUBIN [2]: 0.2 mg/dL
- TOTAL PROTEIN [2]: 5.8 G/DL
- URIC ACID [2]: 1.3 mg/dL
- ABSOLUTE BASOPHIL [3]: 0 CELLS/uL
- ABSOLUTE EOSINOPHIL [3]: 0 CELLS/uL
- ABSOLUTE LYMPHOCYTE [3]: 16113.33 CELLS/uL
- ABSOLUTE MONOCYTE [3]: 104 CELLS/uL
- ABSOLUTE SEGMENTED NEUTROPHIL [3]: 1216 CELLS/uL
- BASOPHIL [3]: 0%
- EOSINOPHIL [3]: 0%
- ERYTHROCYTE COUNT [3]: 5.67 x10E6/uL
- HEMATOCRIT [3]: 35.07%
- HEMOGLOBIN [3]: 14.07 G/DL
- LEUKOCYTE COUNT [3]: 17.43 x10E3/uL
- LYMPHOCYTE [3]: 92%
- MEAN CORPUSCULAR HEMOGLOBIN [3]: 24.8 pg
- MEAN CORPUSCULAR HEMOGLOBIN CONCENTRATION [3]: 40.1 G/DL
- MEAN CORPUSCULAR VOLUME [3]: 61.83 fL
- MONOCYTE [3]: 0.67%
- NEUTROPHIL [3]: 7.33%
- NUCLEATED RED BLOOD CELLS [3]: 0 /100WBC
- PLATELET COUNT [3]: 1266.33 x10E3/uL
- ALANINE AMINOTRANSFERASE [3]: 69 u/L
- ALBUMIN [3]: 3.97 G/DL
- ALKALINE PHOSPHATASE [3]: 487 u/L
- ASPARTATE AMINOTRANSFERASE [3]: 117 u/L
- BLOOD UREA NITROGEN [3]: 13 mg/dL
- CARBON DIOXIDE [3]: 29 mmol/L
- CHLORIDE [3]: 102.33 MEQ/L
- CHOLESTEROL [3]: 68.33 mg/dL
- CREATINE PHOSPHOKINASE [3]: 365.33 u/L
- CREATININE [3]: 0.24 mg/dL
- GLUCOSE [3]: 140.67 mg/dL
- LACTATE DEHYDROGENASE [3]: 544.67 u/L
- LIPASE [3]: 12.33 u/L
- PHOSPHORUS [3]: 11.13 mg/dL
- POTASSIUM [3]: 5.99 MEQ/L
- SODIUM [3]: 142.27 MEQ/L
- TOTAL BILIRUBIN [3]: 0.23 mg/dL
- TOTAL PROTEIN [3]: 5.47 G/DL
- URIC ACID [3]: 1.4 mg/dL
- ABSOLUTE BASOPHIL [4]: 0 CELLS/uL
- ABSOLUTE EOSINOPHIL [4]: 0 CELLS/uL
- ABSOLUTE LYMPHOCYTE [4]: 11610.33 CELLS/uL
- ABSOLUTE MONOCYTE [4]: 237.67 CELLS/uL
- ABSOLUTE SEGMENTED NEUTROPHIL [4]: 1485.33 CELLS/uL
- BASOPHIL [4]: 0%
- EOSINOPHIL [4]: 0%
- ERYTHROCYTE COUNT [4]: 6.3 x10E6/uL
- HEMATOCRIT [4]: 38.7%
- HEMOGLOBIN [4]: 15.17 G/DL
- LEUKOCYTE COUNT [4]: 13.33 x10E3/uL
- LYMPHOCYTE [4]: 87.33%
- MEAN CORPUSCULAR HEMOGLOBIN [4]: 24.13 pg
- MEAN CORPUSCULAR HEMOGLOBIN CONCENTRATION [4]: 39.23 G/DL
- MEAN CORPUSCULAR VOLUME [4]: 61.5 fL
- MONOCYTE [4]: 1.67%
- NEUTROPHIL [4]: 11%
- NUCLEATED RED BLOOD CELLS [4]: 0 /100WBC
- PLATELET COUNT [4]: 1093.67 x10E3/uL
- ALANINE AMINOTRANSFERASE [4]: 36.67 u/L
- ALBUMIN [4]: 4.27 G/DL
- ALKALINE PHOSPHATASE [4]: 295.33 u/L
- ASPARTATE AMINOTRANSFERASE [4]: 110.67 u/L
- BLOOD UREA NITROGEN [4]: 15.33 mg/dL
- CARBON DIOXIDE [4]: 28.67 mmol/L
- CHLORIDE [4]: 104.67 MEQ/L
- CHOLESTEROL [4]: 55.67 mg/dL
- CREATINE PHOSPHOKINASE [4]: 254 u/L
- CREATININE [4]: 0.21 mg/dL
- GLUCOSE [4]: 151.33 mg/dL
- LACTATE DEHYDROGENASE [4]: 321.67 u/L
- LIPASE [4]: 10.67 u/L
- PHOSPHORUS [4]: 9.9 mg/dL
- POTASSIUM [4]: 4.59 MEQ/L
- SODIUM [4]: 146.27 MEQ/L
- TOTAL BILIRUBIN [4]: 0.1 mg/dL
- TOTAL PROTEIN [4]: 5.77 G/DL
- URIC ACID [4]: 1.13 mg/dL
